Where a name gives a salt, the structure may show the parent alone.
Tests used:
[1] = target: T1, MCP-1 receptor (Homo sapiens, UniProt P41597); assay: MCP-1 binding assay (125I-MCP-1, THP-1 cell membranes); conditions: 0.2 nM 125I-labeled MCP-1, averages of several or two experiments, read-out: Inhibition Of MCP-1 Binding IC50
T1 construct: host or cells: THP-1 cell membranes
Description: Membranes used in the MCP-1 binding assay were prepared from THP-1 cells (human monocytic cell line source—American Type Culture Collection, Tumor Immunology Bank #202, Rockville, Md., accession no. ATCC TIB 202). Cells were harvested by centrifugation and washed twice in ice-cold PBS (phosphate-buffered saline) and the cell pellet was frozen at −80° C. in some cases. Cells were resuspended in ice-cold lysis buffer 5mM HEPES (2-(4N-,[2-hydroxyethyl] piperazin-1-yl)-N′-(2-ethanesulfonic acid), pH 7.5, 2 mM EDTA (ethylenediaminetetraacetic acid), 5 ug/ml each leupeptin, aprotinin, chymostatin (protease inhibitors), and 100 ug/ml PMSF (phenylmethane sulfonyl fluoride—also a protease inhibitor)) at a concentration of 5×10^7 cells/ml. […] Typical binding assays used 10-20 ug/well of total membrane protein as determined with a standard protein assay (e.g. BioRad, Richmond, Calif.).
For binding, 10-20 ug total membrane protein were included in the binding reaction along with 0.2 nM I^125-labeled MCP-1 (Amersham, Arlington Heights, Ill.) with or without unlabeled competitor MCP-1 (Peprotech, Rocky Hill, N.J.) (at 250-500 nM). […] Filters were dried and counted in a Beta-Plate scintillation counter using standard scintillation fluid. […]
IC50s were calculated using a non-linear 3-parameter logistic curve fit. […]

[2] = test system: CD3-Blasts; assay: CD3-Blast chemotaxis assay (transendothelial migration to MCP-1); assay type: cell-based; conditions: ECV-304; migration of human CD3-Blasts to about 10 nM MCP-1 across ECV304 endothelial cells, approximately 1 hour
Source text: CD3—Blast Chemotaxis Assay
Recombinant human MCP-1 was obtained from Peprotech (Rockey Hill, N.J.). T lymphocyte blast cells (CD3-Blasts) were generated by standard protocols (Coligan, J. E., A. M. Kruisbeek, D. H. Macgulies, E. M. Shevach, and W. Strober, editors. 1992. Current Protocols in Immunology. John Wiley and Sons, New York, 7.1.2, 7.10.1-7.10.10). Briefly, human peripheral blood mononuclear cells (PBMC) were isoltated from heparinized venous blood by Percoll density gradient centrifugation (d=1.088) at room temperature. RBCs were removed by hypotonic lysis or Dextran sedimentation. […] CD3-Blast chemotaxis was assessed no sooner than 3 to 4 days after transfer to the IL-2 containing medium using a modification of a transendothelial migration assay (Carr. M. W., S. J. Roth, B. Luther, S. S. Rose, and T. A. Springer. 1994. Monocyte chemoattractant protein 1 acts as a T-lymphocyte chemoattractant. Proc. Natl. Acad. Sci. USA 91:3652-6). […] Background migration was determined by counting cells that migrated in the absence of MCP-1 in the lower chamber. […] The percent inhibition by compounds of directed migration was determined by the following formula: [formula] […]

T1 sequence (P41597 whole entry): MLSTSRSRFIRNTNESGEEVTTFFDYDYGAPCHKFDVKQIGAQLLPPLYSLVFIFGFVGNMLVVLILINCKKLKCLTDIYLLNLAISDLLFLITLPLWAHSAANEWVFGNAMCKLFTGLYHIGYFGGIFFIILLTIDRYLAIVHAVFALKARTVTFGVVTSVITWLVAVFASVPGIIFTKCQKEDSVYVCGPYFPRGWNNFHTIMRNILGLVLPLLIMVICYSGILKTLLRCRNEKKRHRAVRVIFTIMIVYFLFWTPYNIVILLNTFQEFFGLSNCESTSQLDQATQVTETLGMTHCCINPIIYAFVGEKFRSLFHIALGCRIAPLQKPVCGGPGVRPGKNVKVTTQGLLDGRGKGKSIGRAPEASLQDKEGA

## O=C(/C=C/C=C/c1ccc(Cl)c(Cl)c1)NCCCN1CCCCC1 [Example 1, 5-(3,4-Dichloro-phenyl)-penta-2,4-dienoic Acid (3-piperidin-1-yl-propyl)-amide-HCl]
[1]
  IC50: 2.2 µM
[2]
  IC50: 23 µM
